Experiments:
LLC-1 (lung cancer) = test: MTT cytotoxicity assay, LLC-1; type: cell-based; settings: LLC-1, MTT, 72 h
Description: (§1) All prepared cobalt-polypyridyl complexes were dissolved in DMSO at a final concentration of 50 mmol/L and stored at −20° C. before use. Cytotoxicity was assessed by using the 3-(4,5-dimethylthiazol-2-yl)-2,5-diphenyltetrazolium bromide (MTT) (5.0 mg/ml) assay as previously described (Wong, V. K. et al., Cell Death Dis, 2013, 4, e720). Briefly, 4×10^3 cells per well were seeded in 96-well plates before drug treatments. After overnight culture, the cells were then exposed to different concentrations of selected compounds (0.039-100 μmol/L) for 72 h. Cells without drug treatment were used as control. Subsequently, MTT (10 μL) solution was added to each well and incubated at 37° C. for 4 h followed by the addition of 100 μL solubilization buffer (10% SDS in 0.01 mol/L HCl) and overnight incubation. A570 nm was then determined in each well on the next day. The percentage of cell viability was calculated using the following formula: Cell viability (%)=Atreated/Acontrol×100. Data were obtained from three independent experiments. Cells include HeLa cells (cervical cancer), MCF-7 (breast cancer), H1299, H1975, A549 and LLC-1 (lung cancer), HepG2 and Hep3B (liver cancer) and LO2 (normal human hepatocytes).

[1] = tested on: Taxol-sensitive A549 cancer cells; test: MTT cytotoxicity, taxol-sensitive A549; type: cell-based; settings: 72 h
Description: as §1, with “experiments.” for “experiments. Cells include HeLa cells (cervical cancer), MCF-7 (breast cancer), H1299, H1975, A549 and LLC-1 (lung cancer), HepG2 and Hep3B (liver cancer) and LO2 (normal human hepatocytes).”

[2] = tested on: HeLa cells (cervical cancer); test: MTT cytotoxicity assay, HeLa; type: cell-based; settings: 72 h
Description: as §1

[3] = tested on: OV2008 cervical cancer cells; test: MTT cytotoxicity, OV2008 (cisplatin-sensitive); type: cell-based; settings: 72 h
Description: as §1, with “experiments.” for “experiments. Cells include HeLa cells (cervical cancer), MCF-7 (breast cancer), H1299, H1975, A549 and LLC-1 (lung cancer), HepG2 and Hep3B (liver cancer) and LO2 (normal human hepatocytes).”
(§2) Cisplatin-sensitive or -resistant A2780, OV2008 and C13 cancer cells were provided by Prof. Benjamin Tsang (Department of Obstetrics and Gynecology and Department of Cellular and Molecular Medicine, University of Ottawa, Canada). HCT116 p53^+/+ and p53^−/− isogenic human colon cancer cells were provided by Professor Bert Vogelstein (Ludwig Center at Johns Hopkins, Howard Hughes Medical Institute, USA). All media were supplemented with 10% fetal bovine serum and the antibiotics penicillin (50 U/ml) and streptomycin (50 μg/ml; Invitrogen, Paisley, Scotland, UK). All cell cultures were incubated at 37° C. in a 5% humidified CO2 incubator.

Atg7 wild-type MEFs = test: Cytotoxic effect in Atg7 wild-type MEFs; type: cell-based, mouse
Excerpt: (§3) All cells were obtained from the American Type Culture Collection (Rockville, Md., USA) unless otherwise specified. Immortalized wild-type and Atg7-deficient mouse embryonic fibroblasts (MEFs) were provided by Professor Masaaki Komatsu (Juntendo University, School of Medicine, Japan). Taxol-resistant types of A549, MCF-7, HCT-8 cancer cells, cisplatin-resistant SGC7901 cancer cells were purchased from KeyGEN BioTECH, China.
(§4) In addition, the protein conversion from LC3-I to LC3-II is the marker for autophagy induction. […] In order to further confirm that the cobalt complex-induced autophagy leads to its anti-cancer effect, the cytotoxic effect of the cobalt-polypyridyl complex of Formula (IV) has been examined in both autophagy-wild type and -deficient cells respectively. Therefore, both autophagy related gene (Atg) 7 wild-type and deficient mouse embryonic fibroblasts (MEFs) (Wong, V. K. et al., Cell Death Dis, 2013, 4, e720) were used in this study. […] In view of the fact that the cobalt-polypyridyl complex of Formula (IV)-mediated cytotoxicity was markedly abrogated from the failure of autophagy induction in Atg7−/− deficient cells, these findings implicated that the cobalt-polypyridyl complex of Formula (IV)-induced autophagy would ultimately led to autophagic cell death.

[4] = tested on: cisplatin-resistant A2780 ovarian cancer cells; test: MTT cytotoxicity, cisplatin-resistant A2780; type: cell-based
Description: as §1, with “experiments.” for “experiments. Cells include HeLa cells (cervical cancer), MCF-7 (breast cancer), H1299, H1975, A549 and LLC-1 (lung cancer), HepG2 and Hep3B (liver cancer) and LO2 (normal human hepatocytes).”
as §2

[5] = tested on: LO2 (normal human hepatocytes); test: MTT cytotoxicity assay, LO2; type: cell-based; settings: 72 h
Description: as §1

[6] = tested on: Taxol-sensitive MCF-7 cancer cells; test: MTT cytotoxicity, taxol-sensitive MCF-7; type: cell-based; settings: MCF-7, MTT, 72 h
Description: as §1, with “experiments.” for “experiments. Cells include HeLa cells (cervical cancer), MCF-7 (breast cancer), H1299, H1975, A549 and LLC-1 (lung cancer), HepG2 and Hep3B (liver cancer) and LO2 (normal human hepatocytes).”

[7] = tested on: Taxol-resistant A549 cancer cells; test: MTT cytotoxicity, taxol-resistant A549; type: cell-based
Description: as §1, with “experiments.” for “experiments. Cells include HeLa cells (cervical cancer), MCF-7 (breast cancer), H1299, H1975, A549 and LLC-1 (lung cancer), HepG2 and Hep3B (liver cancer) and LO2 (normal human hepatocytes).”
as §3

[8] = tested on: cisplatin-sensitive A2780 ovarian cancer cells; test: MTT cytotoxicity, cisplatin-sensitive A2780; type: cell-based; settings: 72 h
Description: as §1, with “experiments.” for “experiments. Cells include HeLa cells (cervical cancer), MCF-7 (breast cancer), H1299, H1975, A549 and LLC-1 (lung cancer), HepG2 and Hep3B (liver cancer) and LO2 (normal human hepatocytes).”
as §2

[9] = tested on: OV2008/C13 cervical cancer cells; test: MTT cytotoxicity, OV2008/C13 (cisplatin-resistant); type: cell-based
Description: as §1, with “experiments.” for “experiments. Cells include HeLa cells (cervical cancer), MCF-7 (breast cancer), H1299, H1975, A549 and LLC-1 (lung cancer), HepG2 and Hep3B (liver cancer) and LO2 (normal human hepatocytes).”
as §2

[10] = tested on: HCT116 p53^−/− colon cancer cells; test: MTT cytotoxicity, HCT116 p53-/-; type: cell-based, human
Description: as §1, with “experiments.” for “experiments. Cells include HeLa cells (cervical cancer), MCF-7 (breast cancer), H1299, H1975, A549 and LLC-1 (lung cancer), HepG2 and Hep3B (liver cancer) and LO2 (normal human hepatocytes).”
as §2

H1975 (lung cancer) = test: MTT cytotoxicity assay, H1975; type: cell-based; settings: 72 h
Description: as §1

[11] = tested on: Taxol-sensitive HCT8 cancer cells; test: MTT cytotoxicity, taxol-sensitive HCT8; type: cell-based; settings: 72 h
Description: as §1, with “experiments.” for “experiments. Cells include HeLa cells (cervical cancer), MCF-7 (breast cancer), H1299, H1975, A549 and LLC-1 (lung cancer), HepG2 and Hep3B (liver cancer) and LO2 (normal human hepatocytes).”

H1299 (lung cancer) = test: MTT cytotoxicity assay, H1299; type: cell-based, human; settings: 72 h
Description: as §1

[12] = tested on: Taxol-resistant MCF-7 cancer cells; test: MTT cytotoxicity, taxol-resistant MCF-7; type: cell-based
Description: as §1, with “experiments.” for “experiments. Cells include HeLa cells (cervical cancer), MCF-7 (breast cancer), H1299, H1975, A549 and LLC-1 (lung cancer), HepG2 and Hep3B (liver cancer) and LO2 (normal human hepatocytes).”
as §3

Atg7 deficient MEFs = test: Cytotoxic effect in Atg7 deficient MEFs; type: cell-based, mouse
Excerpt: as §3, §4

HepG2 (liver cancer) = test: MTT cytotoxicity assay, HepG2; type: cell-based; settings: 72 h
Description: as §1

[13] = tested on: HCT116 p53^+/+ colon cancer cells; test: MTT cytotoxicity, HCT116 p53+/+; type: cell-based, human; settings: 72 h
Description: as §1, with “experiments.” for “experiments. Cells include HeLa cells (cervical cancer), MCF-7 (breast cancer), H1299, H1975, A549 and LLC-1 (lung cancer), HepG2 and Hep3B (liver cancer) and LO2 (normal human hepatocytes).”
as §2

[14] = tested on: cisplatin-sensitive SGC-7901 gastric cancer cells; test: MTT cytotoxicity, cisplatin-sensitive SGC-7901; type: cell-based; settings: SGC-7901, MTT, 72 h
Description: as §1, with “experiments.” for “experiments. Cells include HeLa cells (cervical cancer), MCF-7 (breast cancer), H1299, H1975, A549 and LLC-1 (lung cancer), HepG2 and Hep3B (liver cancer) and LO2 (normal human hepatocytes).”

MCF-7 (breast cancer) = test: MTT cytotoxicity assay, MCF-7; type: cell-based; settings: MCF-7, MTT, 72 h
Description: as §1

[15] = tested on: Taxol-resistant HCT8 cancer cells; test: MTT cytotoxicity, taxol-resistant HCT8; type: cell-based
Description: as §1, with “experiments.” for “experiments. Cells include HeLa cells (cervical cancer), MCF-7 (breast cancer), H1299, H1975, A549 and LLC-1 (lung cancer), HepG2 and Hep3B (liver cancer) and LO2 (normal human hepatocytes).”
as §3

Hep 3B (liver cancer) = test: MTT cytotoxicity assay, Hep3B; type: cell-based; settings: 72 h
Description: as §1

[16] = tested on: cisplatin-resistant SGC-7901 gastric cancer cells; test: MTT cytotoxicity, cisplatin-resistant SGC-7901; type: cell-based
Description: as §1, with “experiments.” for “experiments. Cells include HeLa cells (cervical cancer), MCF-7 (breast cancer), H1299, H1975, A549 and LLC-1 (lung cancer), HepG2 and Hep3B (liver cancer) and LO2 (normal human hepatocytes).”
as §3

A549 (lung cancer) = test: MTT cytotoxicity assay, A549; type: cell-based; settings: 72 h
Description: as §1

Substance: [Co^II(4,4′-Me2-Bpy)3](PF6)2 [complex (III)]
- IC50 (LLC-1 (lung cancer)): 2.79 µM
- IC50 [1]: 9.59 µM
- IC50 [2]: 10.1 µM
- IC50 [3]: 7.06 µM
- IC50 (Atg7 wild-type MEFs): 4.84 µM
- IC50 ([4]; A2780, MTT, 72 h): 11.2 µM
- Resistant Factor ([4]; A2780, cisplatin-resistant over cisplatin-sensitive): 0.94
- IC50 [5]: 13.5 µM
- IC50 [6]: 4.62 µM
- IC50 ([7]; A549, MTT, 72 h): 2.37 µM
- Resistant Factor ([7]; A549, IC50 taxol-resistant over IC50 taxol-sensitive): 0.25
- IC50 [8]: 11.9 µM
- IC50 ([9]; OV2008/C13, MTT, 72 h): 15.6 µM
- Resistant Factor ([9]; OV2008/C13 over OV2008): 2.21
- Resistant Factor ([10]; HCT116 p53^−/− over HCT116 p53^+/+): 0.52
- IC50 ([10]; MTT, 72 h): 8.89 µM
- IC50 (H1975 (lung cancer)): 15.4 µM
- IC50 [11]: 3.13 µM
- IC50 (H1299 (lung cancer)): 3.43 µM
- IC50 ([12]; MCF-7, MTT, 72 h): 2.51 µM
- Resistant Factor ([12]; MCF-7, IC50 taxol-resistant over IC50 taxol-sensitive): 0.54
- IC50 (Atg7 deficient MEFs): 14 µM
- IC50 (HepG2 (liver cancer)): 7.39 µM
- IC50 [13]: 17.1 µM
- IC50 [14]: 11.7 µM
- IC50 (MCF-7 (breast cancer)): 15.4 µM
- IC50 ([15]; HCT8, MTT, 72 h): 1.16 µM
- Resistant Factor ([15]; HCT8, IC50 taxol-resistant over IC50 taxol-sensitive): 0.37
- IC50 (Hep 3B (liver cancer)): 4.06 µM
- IC50 ([16]; SGC-7901, MTT, 72 h): 17.6 µM
- Resistant Factor ([16]; SGC-7901, cisplatin-resistant over cisplatin-sensitive): 1.50
- IC50 (A549 (lung cancer)): 9.45 µM
